Test results from patent publication US20220348981A1, “ASSAY OF ARYLSULFATASE A ENZYMATIC ACTIVITY IN DRIED BLOOD SPOTS BY MASS SPECTROMETRY AND FLUOROMETRY” (University of Washington, priority 2019, published 2022).

Assays:
arylsulfatase A (ARSA) [1] = biological target: T1, arylsulfatase A (ARSA) (Homo sapiens, UniProt P15289); test: ARSA assay with a 3 mm DBS punch, no purification; type: biochemical; settings: 5 mM added to the assay buffer; data not shown
T1 construct: the assay is able to detect ARSA enzymatic activity in lysates of mixed leukocytes (mainly lymphocytes) by LC-MS/MS; endogenous in cells; host or cells: mixed leukocytes (mainly lymphocytes) prepared from K2EDTA venous blood; lysate, 2 µg protein per assay
T1 sequence (P15289 19-507): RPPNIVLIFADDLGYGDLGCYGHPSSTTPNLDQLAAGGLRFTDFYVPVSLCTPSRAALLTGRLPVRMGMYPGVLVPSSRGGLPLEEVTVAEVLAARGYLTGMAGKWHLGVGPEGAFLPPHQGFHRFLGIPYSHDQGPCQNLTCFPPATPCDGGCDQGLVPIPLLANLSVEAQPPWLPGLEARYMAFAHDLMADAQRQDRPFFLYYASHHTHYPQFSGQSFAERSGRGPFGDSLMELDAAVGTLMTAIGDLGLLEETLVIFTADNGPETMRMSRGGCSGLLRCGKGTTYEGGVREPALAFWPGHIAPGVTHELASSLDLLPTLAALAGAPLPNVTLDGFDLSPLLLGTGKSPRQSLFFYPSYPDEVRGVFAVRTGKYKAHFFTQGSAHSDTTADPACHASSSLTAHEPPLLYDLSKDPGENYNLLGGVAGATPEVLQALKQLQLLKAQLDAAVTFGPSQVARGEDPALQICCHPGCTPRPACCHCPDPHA
Description: Application of ARSA assay to DBS extracts purified by immune-precipitation. Initial attempts to detect ARSA enzymatic activity in DBS were unsuccessful. When the leukocyte lysate was substituted with a 3 mm DBS punch in the ARSA assay, no ARSA activity could be detected. Moreover, no ARSA activity was observed when leukocyte lysate was co-incubated with a DBS punch, whereas activity was seen when the leukocyte was incubated with a filter paper punch lacking blood matrix (data not shown). This indicated the presence of some ARSA inhibitor(s) in whole blood.

arylsulfatase A (ARSA) [2] = biological target: T1, arylsulfatase A (ARSA); test: ARSA leukocyte assay by LC-MS/MS with deuterated sulfatide substrate; type: biochemical; settings: for effect on ARSA activity: additive in assay buffer, increasing amount (Ce(acetate)3 0 to 20 mM)
Description: Development of a new ARSA leukocyte assay. Recently, Han et al. reported the detection of ARSA enzymatic activity where a natural substrate, C18:0-sulfatide, was incubated with leukocyte lysate in buffer containing sodium taurodeoxycholate as detergent (Han, M.; Jun, S. H.; Song, S. H.; Park, H. D.; Park, K. U.; Song, J., Ultra-performance liquid chromatography-tandem mass spectrometry measurement of leukocyte arylsulfatase A activity using a natural substrate. Ann Lab Med 2015, 35 (1), 165-8). As described herein, in the present assay, the deuterium labeled sulfatide d3-C18:0-sulfatide was used as substrate so that the enzymatic product (d3-C18:0-galactosyl-ceramide) also carried the three deuterium labels, and could be selectively quantified without being interfered by the endogenous galactosyl-ceramide. Using this approach, the assay is able to detect ARSA enzymatic activity in lysates of mixed leukocytes (mainly lymphocytes) by LC-MS/MS. […] If leukocyte lysate was omitted, no discernable product peak was observed above the baseline noise (data not shown). […] Because detergent was present in the assay buffer, MLD patients that are due to dysfunctional Saposin B protein will not be detected with this assay, but these variants are very rare among MLD patients (less than 5%). In the Han et al. report, MnCl2 was added to the buffer at a concentration of 33 mM. […] Barium or cerium […] are often used to assay sulfatases in complex matrices to sequester inorganic sulfate and phosphate ions, which are potent inhibitors of sulfatases. […] The ARSA activity was pH dependent with an optimal pH at 4.5. […] The pH optimum of ARSA and the KM value found agreed with the previous reports. […]
Enzymatic activity calculation. ARSA activity in leukocyte (nmol/h/mg protein) was calculated by multiplying the ion ratio of ARSA product to ARSA internal standard (blank subtracted) by the nanomoles of internal standard added to the assay, then dividing by the incubation time (h) and the amount of leukocyte protein used (mg). […]

| Compound | rescue of ARSA activity in DBS (arylsulfatase A (ARSA) [1]) | Km (arylsulfatase A (ARSA) [2]; leukocyte lysate, substrate concentration varied, hyperbolic kinetics, pH 4.5) [µM] | effect on ARSA activity (arylsulfatase A (ARSA) [2]) |
| --- | --- | --- | --- |
| CC(=O)[O-].CC(=O)[O-].[Pd+2] [Pd(Acetate)2] | did not rescue ARSA activity |  |  |
| d3-C18:0-sulfatide |  | 83 |  |
| CC(=O)[O-].CC(=O)[O-].CC(=O)[O-].[Ce+3] [Ce(acetate)3] | did not rescue ARSA activity |  | decrease |
| [Cl][Mn][Cl] [MnCl2] |  |  | decrease with increasing amount |
